# Laboratory results taken from ChEMBL document CHEMBL5329225, “Solubilizer Tag Effect on PD-L1/Inhibitor Binding Properties for m-Terphenyl Derivatives” (ACS Med Chem Lett, 2024).
# The source made the active and inactive calls. The rule behind the calls is not given here.
# How the values were obtained:
# [1] = system: Jurkat; assay: Induction of T cell activation in human Jurkat T cells overexpressing PD-1 co-cultured with Chinese hamster CHO cells overexpressing PD-L1 assessed as increase in luciferase activity at 6.4 uM incubated for 6 hrs by Bio-GloTM reagent based immune checkpoint blockade assay; format: functional
# [2] = system: Jurkat; assay: Induction of T cell activation in human Jurkat T cells overexpressing PD-1 co-cultured with Chinese hamster CHO cells overexpressing PD-L1 assessed as increase in luciferase activity at 1 uM incubated for 6 hrs by Bio-GloTM reagent based immune checkpoint blockade assay; format: functional
# [3] = target: Programmed cell death protein 1/Programmed cell death 1 ligand 1 (Homo sapiens, UniProt Q9NZQ7); assay: Inhibition of human PD-1/PDL1 interaction incubated for 1 hr by HTRF assay; format: protein-complex assay
# Chain of Programmed cell death protein 1/Programmed cell death 1 ligand 1 (Q15116 whole entry): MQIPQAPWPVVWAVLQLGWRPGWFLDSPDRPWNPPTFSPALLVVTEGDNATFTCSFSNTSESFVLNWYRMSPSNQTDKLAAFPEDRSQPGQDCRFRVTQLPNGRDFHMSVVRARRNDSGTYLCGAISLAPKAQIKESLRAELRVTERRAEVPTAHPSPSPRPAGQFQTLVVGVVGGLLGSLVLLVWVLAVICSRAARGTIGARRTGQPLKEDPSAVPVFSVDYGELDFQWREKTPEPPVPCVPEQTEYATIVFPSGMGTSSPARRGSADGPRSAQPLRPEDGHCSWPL
# Chain of Programmed cell death protein 1/Programmed cell death 1 ligand 1 (Q9NZQ7 whole entry): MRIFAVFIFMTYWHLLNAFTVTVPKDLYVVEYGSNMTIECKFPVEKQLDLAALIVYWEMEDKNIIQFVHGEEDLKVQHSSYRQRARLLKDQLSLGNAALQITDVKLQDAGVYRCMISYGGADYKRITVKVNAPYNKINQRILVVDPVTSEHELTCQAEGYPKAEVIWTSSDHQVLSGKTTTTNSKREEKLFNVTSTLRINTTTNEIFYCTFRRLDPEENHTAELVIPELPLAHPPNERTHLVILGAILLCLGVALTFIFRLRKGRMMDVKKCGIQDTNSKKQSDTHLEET
# [4] = system: Jurkat; assay: Induction of T cell activation in human Jurkat T cells overexpressing PD-1 co-cultured with Chinese hamster CHO cells overexpressing PD-L1 assessed as increase in luciferase activity incubated for 6 hrs by Bio-GloTM reagent based immune checkpoint blockade assay; format: functional
# [5] = Toxicity in human Jurkat T cells overexpressing PD-1 co-cultured with Chinese hamster CHO cells overexpressing PD-L1 at 0.01 to 100 uM; format: cell-based; conditions: dose 0.01-100 µM
SMILES,Activity [1],Activity [2],IC50 [3],Activity [4],Activity [5]
COc1cc(-c2cccc(-c3ccc4c(c3)OCCO4)c2Cl)ccc1CN1CCC(C(=O)NC(CO)(CO)CO)C1 (stereo not given),inactive,inactive,,,
COc1cc(-c2cccc(-c3ccc4c(c3)OCCO4)c2Cl)ccc1CN1CCCC(C(=O)NC(CO)CO)C1 (stereo not given),,,6 nM,,
COc1cc(-c2cccc(-c3ccc4c(c3)OCCO4)c2Cl)ccc1CN1CCC(C(=O)NCCN)C1 (stereo not given),inactive,inactive,,,
COc1cc(-c2cccc(-c3ccc4c(c3)OCCO4)c2Cl)ccc1CN1CCC(C(=O)NO)C1 (stereo not given),,inactive,,,
COc1cc(-c2cccc(-c3ccc4c(c3)OCCO4)c2Cl)ccc1CN1CCC(C(=O)NN(C)C)C1 (stereo not given),Active,,,Dose-Dependent Effect,Toxic
COc1cc(-c2cccc(-c3ccc4c(c3)OCCO4)c2Cl)ccc1CN1CCC(C(=O)NCCO)C1 (stereo not given),,,,Dose-Dependent Effect,Toxic
COc1cc(-c2cccc(-c3ccc4c(c3)OCCO4)c2Cl)ccc1CN1CCC(C(=O)NC(CO)CO)C1 (stereo not given),Active,inactive,,Dose-Dependent Effect,Toxic
